# Laboratory results taken from patent publication US9399653B2, “Methods and systems for preparing irreversible inhibitors of protein tyrosine phosphatases” (The Governors of the University of Alberta, priority 2010, dated 2016).
# Values joined by “and” are separate entries in the source; they are usually repeats but may differ in a detail not shown here. Identical values can stand only once.
# Key:
# CD45 = target: T1, CD45 (Homo sapiens, UniProt P08575); assay: Time-dependent inhibition of CD45 (pre-incubation with inhibitor); assay type: biochemical; conditions: compound at 25 μM, enzyme incubated 13 h (FIG. 13)
# T1 construct: Enzyme assays were conducted using human CD45-cytoplasmic domain (Enzo Life Science); purchased Enzo Life Science
# T1 sequence (P08575 599-1306 limits assumed): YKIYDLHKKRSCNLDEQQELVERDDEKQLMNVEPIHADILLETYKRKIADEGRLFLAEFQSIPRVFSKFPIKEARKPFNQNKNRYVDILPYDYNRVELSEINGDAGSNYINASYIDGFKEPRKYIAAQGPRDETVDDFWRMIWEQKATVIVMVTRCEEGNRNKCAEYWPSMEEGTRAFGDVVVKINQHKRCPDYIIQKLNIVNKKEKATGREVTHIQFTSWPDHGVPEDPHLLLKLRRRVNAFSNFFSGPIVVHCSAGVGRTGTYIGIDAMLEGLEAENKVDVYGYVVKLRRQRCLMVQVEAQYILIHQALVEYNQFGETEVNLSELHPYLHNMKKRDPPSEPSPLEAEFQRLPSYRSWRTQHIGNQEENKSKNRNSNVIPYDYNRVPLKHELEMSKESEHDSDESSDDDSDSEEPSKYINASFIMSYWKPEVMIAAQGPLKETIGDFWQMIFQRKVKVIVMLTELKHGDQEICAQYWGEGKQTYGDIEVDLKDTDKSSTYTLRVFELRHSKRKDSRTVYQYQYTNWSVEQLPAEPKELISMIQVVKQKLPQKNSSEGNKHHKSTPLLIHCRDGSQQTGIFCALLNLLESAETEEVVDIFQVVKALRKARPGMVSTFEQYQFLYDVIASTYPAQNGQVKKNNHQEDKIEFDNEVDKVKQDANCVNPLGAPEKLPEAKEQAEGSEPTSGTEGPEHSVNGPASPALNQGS
# Method: FIG. 13 is a plot of time-dependent inhibition of CD45 enzyme activity in the presence of compound 1 at a concentration of 25 μM. The enzyme was incubated for 13 h, either alone or in the presence of compound 1.
# Time-Dependent Inhibition of CD45 by Compound 1
# (§1) The Kitz-Wilson analysis estimated the rate of irreversible inhibition (k3) of CD45 at 0.05 min^−1 for both compounds. To provide additional support for the expected mechanism of inhibition, we measured CD45 activity for an enzyme sample which was pre-incubated with the inhibitor and compared it to an enzyme sample that was only incubated with the inhibitor for a short period.
# [1] = target: T2, human CD45-cytoplasmic domain (Homo sapiens, UniProt P08575); assay: Phosphatase enzyme inhibition, CD45, fluorogenic substrate DiFMUP; assay type: biochemical; conditions: for inhibition of CD45 (in words): DiFMUP substrate
# T2 construct: human CD45-cytoplasmic domain (Enzo Life Science); purchased Enzo Life Science
# T2 sequence (P08575 599-1306 limits assumed): T1 sequence (P08575 599-1306 limits assumed)
# Method: Enzyme assays were conducted using human CD45-cytoplasmic domain (Enzo Life Science; diluted to 4 mU/μL in 50 mM HEPES, pH 7.2, 1 mM EDTA, and 0.1% nonidet P-40) (FIG. 6-8), or bovine alkaline phosphatase (New England Bio Labs; diluted to 4 mU/μL in 100 mM NaCl, 50 mM tris-HCl, 10 mM MgCl2 1 mM dithiothreitol, pH 7.9) (FIG. 2-5). Enzyme activity was detected with a fluorogenic substrate (6,8-difluoro-4-methylumbelliferyl phosphate; DiFMUP) (Invitrogen). Assays were performed in black 96-well plates and read in a Spectra Max M2 plate reader (Molecular Devices). For CD45 assays, substrate concentration was between 1 μM to 50 μM, for alkaline phosphatase substrate concentration was between 10 nM to 10 μM. Stock solutions of inhibitors (100 mM of compound 7 in deionized water; and 10 mM of compound 17 in 50% deionized water and 50% DMSO) were prepared and stored at −20° C. Final solutions in microplate wells contained a total volume of 100 μL consisting of 2 μL of diluted enzyme, inhibitor, and DiFMUP substrate diluted to 100 μL in the appropriate buffer. All wells were incubated for 10 min at 37° C. in the plate reader prior to the addition of DiFMUP. After incubation, substrate was added and the plate was read at an excitation maximum of 358 nm and an emission maximum of 450 nm every 30 seconds for 125 min (CD45) or 65 min (alkaline phosphatase).
# The Km for DiFMUP with each enzyme was first determined, and the experiment was then repeated in the presence of the inhibitor at a concentration close to an initially estimated K, (TABLE 1). […] Previous reports of PTP inhibition using BBP analogs observed irreversible inhibition of the enzyme.(22) Evaluation of the kinetic data described above using reciprocal plots (FIG. 9-12) was not consistent with pure competitive inhibition of CD45, but this analysis is not conclusive on its own.
# as §1
compound,measurement,setting,value
L-BrPmp-OH [compound 1],CD45 activity after pre-incubation with inhibitor,CD45,at long incubation times completely inactivated the enzyme
"O=P(O)(O)C(Br)c1ccccc1 (centres unmarked) [compound 7, [bromo(phenyl)methyl]phosphonic acid, reference compound]",inhibition of CD45 (in words),[1],failure to alter the rate of reaction
same,KI,[1]; Kitz-Wilson analysis,did not give a saturating curve
"CC(C)C[C@H](NC(=O)[C@H](Cc1ccc(C(Br)P(=O)(O)O)cc1)NC(=O)[C@@H](N)CC(=O)O)C(=O)O (some centres unmarked) [compound 17, Asp-BrPmp-Leu]",inhibition of CD45 (in words),[1],significant inhibition of the enzyme at low micromolar concentrations
same,Ki,[1]; Kitz-Wilson analysis,16 ± 4 µM
same,"k3, rate of enzyme inactivation",[1]; Kitz-Wilson analysis,0.05 min⁻¹ and 0.048 ± 0.003 min⁻¹
same,potency relative to BrPmp alone,[1]; from Kitz-Wilson KI values (Example 8),approximately 4 fold
same,potency relative to BrPmp alone,[1]; initial kinetic data (Example 7),approximately 7 fold
